In patent US20250034186A1, “ANTIVIRAL COMPOUNDS” (priority 2020, published 2025):
Values after ≈ are worked out from the molar mass of the structure shown. Read-outs that look alike come from different tables or passages of the source.

Experiments:
HEp-2 cytotoxicity assay = type: cell-based; details: human, HEp-2 cells (uninfected), 4-5 days
Protocol: Cytotoxicity of the compound of Formula I and compounds 1, 2, and 6 was determined in uninfected cells using the cell viability reagent in a similar fashion as described before for other cell types (Cihlar et al., Antimicrob Agents Chemother. 2008, 52(2):655-65.). HEp-2 (1.5×10^3 cells/well) and MT-4 (2×10^3 cells/well) cells were plated in 384-well plates and incubated with the appropriate medium containing 3-fold serially diluted compound ranging from 15 nM to 100,000 nM. Cells were cultured for 4-5 days at 37° C. Following the incubation, the cells were allowed to equilibrate to 25° C., and cell viability was determined by adding Cell-Titer Glo viability reagent. The mixture was incubated for 10 min, and the luminescence signal was quantified using an Envision plate reader. Untreated cell and cells treated at 2 μM puromycin (Sigma, St. Louis, MO) serve as 100% and 0% cell viability control, respectively.

RSV strain A2 = test: RSV HEp-2 EC50, infectious cytopathic cell protection assay; type: cell-based; details: for EC50: human respiratory syncytial virus, 96 h, RSV A2 in HEp-2 cells, 4 days, Cell TiterGlo
Protocol: Antiviral activity against RSV is determined using an infectious cytopathic cell protection assay in HEp-2 cells. In this assay, compounds inhibiting viral infection and/or replication produce a cytoprotective effect against the virus-induced cell killing that can be quantified using a cell viability reagent. The techniques used here are novel adaptations of methods described in published literature (Chapman et al., Antimicrob Agents Chemother. 2007, 51(9):3346-53.).
HEp-2 cells are obtained from ATCC (Manassas, VI) and maintained in MEM media supplemented with 10% fetal bovine serum and penicillin/streptomycin. Cells are passaged twice a week and kept at subconfluent stage. Commercial stock of RSV strain A2 (Advanced Biotechnologies, Columbia, MD) is titered before compound testing to determine the appropriate dilution of the virus stock that generates desirable cytopathic effect in HEp-2 cells.
For antiviral tests, HEp-2 cells are grown in large cell culture flasks to near confluency but not fully so. The compounds to be tested are prediluted in DMSO in 384-well compound dilution plates, either in an 8 or 40 sample per plate standardized dose response format. 3-fold serial dilution increments of each test compound are prepared in the plates and test samples are transferred via acoustic transfer apparatus (Echo, Labcyte) at 100 nL per well into cell culture assay 384-well plates. Each compound dilution is transferred in single or quadruplicate samples into dry assay plates, which are stored until assay is ready to go. The positive and negative controls are laid out in opposite on ends of the plate in vertical blocks (1 column).
Subsequently, an infectious mixture is prepared using an appropriate dilution of virus stock previously determined by titration with cells at a density of 50,000/mL and 20 μL/well is added to test plates w/compounds via automation (uFlow, Biotek). Each plate includes negative and positive controls (16 replicates each) to create 0% and 100% virus inhibition standards, respectively. Following the infection with RSV, testing plates are incubated for 4 days in a 37° C. cell culture incubator. After the incubation, a cell viability reagent, Cell TiterGlo (Promega, Madison, WI) is added to the assay plates, which are incubated briefly, and a luminescent readout is measured (Envision, Perkin Elmer) in all the assay plates. The RSV-induced cytopathic effect, percentage inhibition, is determined from the levels of remaining cell viability. […] Various potent anti-RSV tool compounds are used as positive controls for antiviral activity.

[1] = Thermodynamic solubility assay; type: physicochemical; details: thermodynamic from solid, room temperature, four days
Protocol: Excess solid compound was used to saturate aqueous samples of the compounds. The tubes were placed on an agitator set at 1000 rpm and remained under constant agitation for four days. Following agitation, it was confirmed that excess solids were present in all tubes. The tubes were centrifuged at 10,000 rpm for 5 minutes to remove excess solids and the supernatant was transferred to a new vial. Concentration analysis was determined by UPLC and quantified against internal standards.

RSV A strain A2 = test: RSV HAE EC50, intracellular RSV RNA by real-time PCR; type: cell-based; details: for EC50: human respiratory syncytial virus, 72 h, RSV A2 in HAE cells, air-liquid interface, 3 days, RSV RNA
Protocol: HAE cells are cultured at the air-liquid interface and have an apical side that is exposed to the air and a basal side that is in contact with the medium. Prior to experimentation, HAE were removed from their agar-based shipping packaging and were acclimated to 37° C./5% CO2 overnight in 1 ml of HAE Assay medium (AIR-100-MM, Mattek Corp). HAE were prepared for infection by washing the apical surface twice with 400 μL of PBS (either utilizing direct pipetting methods or by running each transwell through a trough containing PBS) to remove the mucus layer. Apical chambers were drained of PBS and tapped gently onto absorbent material to remove as much PBS as possible. After washing, the cells were transferred to fresh HAE maintenance media containing 4-fold serially diluted compound, delivered to the basal side of the cell monolayer, and apically infected with 100 μL of a 1:600 dilution of RSV A strain A2 1000× stock (ABI, Columbia, MD, Cat #10-124-000) in HAE assay medium for 3 hours at 37° C. in 5% CO2. The virus inoculum was removed and the apical surface of the cells was washed 3 times with PBS using either method previously described. The cells were then cultured in the presence of compound for 3 days at 37° C. Following the incubation, total RNA was extracted from the HAE cells using a MagMAX-96 Viral RNA isolation kit (Applied Biosystems, Foster City, CA, Cat #AM1836) and intracellular RSV RNA was quantified by real-time PCR. Approximately 25 ng of purified RNA was added to a PCR reaction mixture that contained 0.9 μM RSV N Forward and RSV N Reverse primers, 0.2 μM RSV N Probe and 1× Taqman RNA-to-Ct 1-Step Kit (Applied Biosystems, Foster City, CA, Cat #4392938). RNA levels were normalized using a Taqman GAPDH control primer set (Applied Biosystems, Foster City, CA, Cat #402869). Real-Time PCR Primers and Probe Used in the RSV A2 HAE Antiviral Assay: RSV N Forward […] (SEQ ID NO: 2), RSV N Reverse […] (SEQ ID NO: 3), RSV N Probe FAM-[…]-BHQ (SEQ ID NO: 4).

[2] = pH 7, aqueous buffer, phosphate buffered saline solution, read-out: pH 7 Solubility
[3] = simulated gastric fluid, 10 mM hydrochloric acid (pH 2.0), read-out: pH 2 Solubility

CCC(CC)COC(=O)[C@H](C)NP(=O)(OC[C@@]1(C#N)O[C@@H](c2ccc3c(N)ncnn23)[C@H](O)[C@@H]1O)Oc1ccccc1 (stereo partly drawn) [Compound 2, reference compound] gave a CC50 (HEp-2 cytotoxicity assay) of over 95400 nM, an EC50 (RSV strain A2) of 69 nM and a solubility thermodynamic at 4 days [1, 2] of 18 µg/mL (≈ 0.0299 mM). For the same molecule, the solubility thermodynamic at 4 days [1, 3] was 3720 µg/mL (≈ 6.17 mM) and the EC50 (RSV A strain A2) was 186 nM.
For C[C@H](N[P@](=O)(OC[C@@]1(C#N)O[C@@H](c2ccc3c(N)ncnn23)[C@H](O)[C@@H]1O)Oc1ccccc1)C(=O)OC1CCCCC1 [Formula I, cyclohexyl ((S)-(((2R,3S,4R,5S)-5-(4-aminopyrrolo[2,1-f][1,2,4]triazin-7-yl)-2-cyano-3,4-dihydroxytetrahydrofuran-2-yl)methoxy)(phenoxy)phosphoryl)-L-alaninate], the CC50 (HEp-2 cytotoxicity assay) was over 100000 nM, the “times more potent than the compound of Formula Ib, RSV HEp-2” value (RSV strain A2; EC50 ratio vs Formula Ib) was 31.1 times and the “more potent relative to compound 1, RSV Hep-2” value (RSV strain A2; EC50 ratio vs compound 1) was “about 4.0”. For the same molecule, the “times more potent relative to compound 3, RSV Hep-2” value (RSV strain A2; EC50 ratio vs compound 3) was “about 5 times”, the “times more potent relative to compound 4, RSV Hep-2” value (RSV strain A2; EC50 ratio vs compound 4) was “about 3.9 times” and the “times more potent relative to compound 5, RSV Hep-2” value (RSV strain A2; EC50 ratio vs compound 5) was “about 19.8 times”. It also gave an EC50 (RSV strain A2) of 88 nM, a solubility thermodynamic at 4 days [1, 2] of 131 µg/mL and a solubility thermodynamic at 4 days [1, 3] of 4120 µg/mL. For the same molecule, the “times more potent relative to compound 2, RSV HAE” value (RSV A strain A2; EC50 ratio vs compound 2) was “about 8.1 times” and the EC50 (RSV A strain A2) was 23 nM.
With CCOC(=O)[C@H](C)NP(=O)(OC[C@@]1(C#N)O[C@@H](c2ccc3c(N)ncnn23)[C@H](O)[C@@H]1O)Oc1ccccc1 (stereo partly drawn) [Compound 1, reference compound] the CC50 (HEp-2 cytotoxicity assay) was over 91500 nM and the EC50 (RSV strain A2) was 352 nM.
For CCC(CC)COC(=O)[C@H](C)N[P@](=O)(OC[C@@]1(C#N)O[C@@H](c2ccc3c(N)ncnn23)[C@H](O)[C@@H]1O)Oc1ccccc1 [Compound 6, 2-ethylbutyl ((S)-(((2R,3S,4R,5S)-5-(4-aminopyrrolo[2,1-f][1,2,4]triazin-7-yl)-2-cyano-3,4-dihydroxytetrahydrofuran-2-yl)methoxy)(phenoxy)phosphoryl)alaninate], the CC50 (HEp-2 cytotoxicity assay) was over 95000 nM, the “times more potent than compound 7, RSV HEp-2” value (RSV strain A2; EC50 ratio vs compound 7) was 4.8 times and the EC50 (RSV strain A2) was 26 nM. It also gave a solubility thermodynamic at 4 days [1, 2] of 16 µg/mL (≈ 0.0266 mM), a solubility thermodynamic at 4 days [1, 3] of 3790 µg/mL (≈ 6.29 mM) and an EC50 (RSV A strain A2) of 110 nM.
